The source of these data is publication PMC4821601, “The Interactions of P-Glycoprotein with Antimalarial Drugs, Including Substrate Affinity, Inhibition and Regulation” (PLoS ONE, 2016).

Like-named read-outs stand apart in the source and are kept apart here.

The target of one data set is T1, P-glycoprotein (P-gp) (Homo sapiens, UniProt P08183).
T1 construct: In-vitro Caco-2 cell monolayers were used here as a model for potential drug absorption related problems and P-gp mediated transport of drugs; endogenous in cells; host or cells: Caco-2 (human colon carcinoma, ATCC)
T1 sequence (P08183 whole entry): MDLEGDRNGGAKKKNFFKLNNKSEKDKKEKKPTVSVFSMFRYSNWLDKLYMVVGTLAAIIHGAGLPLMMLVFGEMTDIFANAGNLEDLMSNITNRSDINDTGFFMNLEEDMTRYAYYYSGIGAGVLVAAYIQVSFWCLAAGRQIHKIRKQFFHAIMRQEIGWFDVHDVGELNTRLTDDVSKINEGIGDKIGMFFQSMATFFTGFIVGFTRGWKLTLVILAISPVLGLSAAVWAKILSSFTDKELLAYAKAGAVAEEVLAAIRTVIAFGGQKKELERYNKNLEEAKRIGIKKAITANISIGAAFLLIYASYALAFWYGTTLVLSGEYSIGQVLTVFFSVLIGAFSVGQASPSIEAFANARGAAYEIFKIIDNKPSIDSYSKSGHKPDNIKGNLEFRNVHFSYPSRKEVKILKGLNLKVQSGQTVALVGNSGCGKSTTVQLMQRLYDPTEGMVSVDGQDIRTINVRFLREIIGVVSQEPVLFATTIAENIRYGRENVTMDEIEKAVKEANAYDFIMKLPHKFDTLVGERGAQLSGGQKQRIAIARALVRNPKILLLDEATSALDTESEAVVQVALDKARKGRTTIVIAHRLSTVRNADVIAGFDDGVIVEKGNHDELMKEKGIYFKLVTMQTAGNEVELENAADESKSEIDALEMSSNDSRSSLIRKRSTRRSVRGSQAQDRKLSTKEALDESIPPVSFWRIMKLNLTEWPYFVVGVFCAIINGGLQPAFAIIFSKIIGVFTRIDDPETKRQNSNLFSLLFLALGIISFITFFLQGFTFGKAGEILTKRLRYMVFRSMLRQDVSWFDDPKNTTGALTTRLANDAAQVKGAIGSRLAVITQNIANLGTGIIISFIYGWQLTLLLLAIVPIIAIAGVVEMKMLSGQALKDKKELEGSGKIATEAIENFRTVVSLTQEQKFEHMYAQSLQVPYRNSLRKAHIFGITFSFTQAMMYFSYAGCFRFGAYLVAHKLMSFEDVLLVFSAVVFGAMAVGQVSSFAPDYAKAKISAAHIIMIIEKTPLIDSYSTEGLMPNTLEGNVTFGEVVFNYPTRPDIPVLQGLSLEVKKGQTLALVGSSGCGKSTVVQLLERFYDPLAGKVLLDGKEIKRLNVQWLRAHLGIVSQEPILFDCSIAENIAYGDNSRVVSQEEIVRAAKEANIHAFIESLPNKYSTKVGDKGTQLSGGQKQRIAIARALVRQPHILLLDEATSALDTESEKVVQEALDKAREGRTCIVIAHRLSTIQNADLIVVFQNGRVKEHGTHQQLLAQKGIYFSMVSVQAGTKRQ
As to the kind of experiment: Bidirectional transport of rhodamine123 through Caco-2 monolayers co-incubated with antimalarials (P-gp inhibitory properties). It is filed as in vitro ADME. As for the experimental part: The Caco-2 cells were seeded on 0.6 cm^2 […] Millipore PCF™ filter inserts at the cell density of 65,000 cells/cm^2 as done previously in the lab. Briefly, the cells were grown for 21–24 days to allow full maturation and formation of tight monolayers. The initial experiments were conducted in mid-40s passage cells and repeated in early 80s passage Caco-2 cells. The Trans epithelial electrical resistance (TEER) was measured immediately before and after the experiment using an epithelial voltage/ohm meter and an ENDOHM 12 chamber (World precision instruments, Sarasota, FL). TEER values were measured both before and after the study with readings above 300 Ω.cm^2 considered as acceptable for tight junctions. […] In order to maintain equivalent transport medium (HBSS/HBSS with inhibitor) level both outside and inside the chambers, 300 μL was used as medium in the apical chambers and 600 μL in the basolateral chambers. […] Drugs were co-incubated with MRCP, BCRP and ATP hydrolysis blockers to determine the involvement of other efflux mechanisms. Prior to the experiment, the transport medium, HBSS or HBSS with P-gp inhibitors were pre-incubated with the cells for 30 minutes. Following incubation, inserts were placed in new well plates and donor chamber is replaced with drug or drug with inhibitor and the receiver chamber with blank HBSS or HBSS with inhibitor. Transport medium was collected from the receiver chamber after stirring at time intervals of 30, 60, 90 and 120 minutes and was replaced with the same volume of fresh HBSS, or HBSS with inhibitor, when P-gp inhibitors were used in the study. At the end of the experiment 100 μL of medium was removed from the donor chamber in addition to medium collected from the receiver chamber during the study. The cells were then washed thoroughly in cold (4°C) PBS and cell membranes attached to the inserts were sonicated for 10 minutes in a sonicating water bath and centrifuged at 10,000 g for 10 minutes. Supernatant was frozen at -80°C until assayed. The Papp values of three well plates were determined using methods modified from Artursson’s group as described by Crowe and Lemaire.
CL.vol=Aa/{[Cd0×Vd−[Aa+(Ca×Vs)]−(Ac)×n/nfin]/Vd}
CL.vol = clearance volume (mL), n = time (min), Aa = amount in acceptor compartment at time n (pmols), Cd0 = concentration in donor compartment at time zero (nM), Vd = volume of the donor compartment (mL), Ca = concentration in acceptor compartment at the previous time point (nM), Vs = sample volume of previous time point (mL), Ac = amount of compound associated with the cells (pmol), Nfin = final time point (min). Papp = Apparent permeability (cm/sec) Rate of clearance (mL/min)=CL.vol / n Papp (cm/sec)=Rate of clearance / Surface area (cm^2)
The cleared volume was plotted against time and the slope of the regression line was divided by the surface area to obtain the Papp values. […] Mean Papp for Bas-Ap direction was divided by the Ap-Bas direction to obtain the efflux ratio and values above two were considered as drugs having true efflux transport.

Data set [1] in a line: Bidirectional transport (Papp, efflux ratio) of antimalarials through Caco-2 cell monolayers. It is filed as in vitro ADME, human. As to conditions: human; for Papp at 120 min: Caco-2, Caco-2 monolayers. On the procedure:
(§1) The initial experiments were conducted in mid-40s passage cells and repeated in early 80s passage Caco-2 cells. […] In order to maintain equivalent transport medium (HBSS/HBSS with inhibitor) level both outside and inside the chambers, 300 μL was used as medium in the apical chambers and 600 μL in the basolateral chambers. […] Drugs were co-incubated with MRCP, BCRP and ATP hydrolysis blockers to determine the involvement of other efflux mechanisms. Prior to the experiment, the transport medium, HBSS or HBSS with P-gp inhibitors were pre-incubated with the cells for 30 minutes. Following incubation, inserts were placed in new well plates and donor chamber is replaced with drug or drug with inhibitor and the receiver chamber with blank HBSS or HBSS with inhibitor. Transport medium was collected from the receiver chamber after stirring at time intervals of 30, 60, 90 and 120 minutes and was replaced with the same volume of fresh HBSS, or HBSS with inhibitor, when P-gp inhibitors were used in the study. At the end of the experiment 100 μL of medium was removed from the donor chamber in addition to medium collected from the receiver chamber during the study. The cells were then washed thoroughly in cold (4°C) PBS and cell membranes attached to the inserts were sonicated for 10 minutes in a sonicating water bath and centrifuged at 10,000 g for 10 minutes. Supernatant was frozen at -80°C until assayed. […] CL.vol=[…].vol = clearance volume (mL), n = time (min), Aa = amount in acceptor compartment at time n (pmols), Cd0 = concentration in donor compartment at time zero (nM), Vd = volume of the donor compartment (mL), Ca = concentration in acceptor compartment at the previous time point (nM), Vs = sample volume of previous time point (mL), Ac = amount of compound associated with the cells (pmol), Nfin = final time point (min). […] The cleared volume was plotted against time and the slope of the regression line was divided by the surface area to obtain the Papp values. […] The method from Davis and colleagues was adopted with slight modifications. Separations were performed using an Apollo C18 (5 μm, 4.6x150mm) column attached to a matched guard column (5 μm, 4.6x5.5 mm). […] The injection volume was 40 μL and column oven was maintained at 35°C. The analytes were detected at 222 nm and the retention time was 5.6 minutes. Assay developed by Pussard and co-workers were used and slight modifications were done to adjust laboratory conditions. Separation was done using a Prevail C18 (3 μm, 4.6x150mm) column attached to a Direct-connect^TM universal column prefilter. The mobile phase consisted of 20 mM (w/v) KH2PO4 in deionized water at pH 3.0 and acetonitrile (82:18) v/v. […] The injection volume was 40 μL and column oven was maintained at 30°C. The analytes were detected at 343 nm with a retention time of 2.4 minutes. […] Separations were performed using an Apollo C18 (5 μm, 4.6x150mm) column attached to matched guard column (5 μm, 4.6x5.5mm). […] The injection volume was 40 μL and column oven was maintained at 30°C. The analytes were detected at 660 nm with a retention time of 3.8 minutes. A 40 μL sample was spiked with 5 μL 0.5 mM artemisinin internal standard. […] The pipettor was adjusted to the maximum volume (100 μL). […] Pre-treated samples were loaded into the tips by gently aspirating and discarding into the same vial. The process was repeated 10 times in order to increase binding efficiency of drugs to the OMIX 96 C4 matrix. […] The LC-MS method described by […] and co-workers were modified to suit the LC-MS-MS conditions. […] Wexford, Ireland) at 40°C. […] Quantitation was performed in multiple reactions monitoring, MRM mode, using DUIS (ESI^+ and APCI^+) ion sources. […] The optimized mass spectra were acquired with an interface voltage of 4.5 kV, a detector voltage of 1.0 kV, a heat block temperature of 500°C and a desolvation temperature of 160°C.

The test system of the next data set is Caco-2 cell monolayers. Described as above. It is filed as in vitro ADME, human. On the procedure:
as §1

Details of data set [2]: method as in PMID 17337512. As to conditions: monkeys ref 14; cited from earlier work.

In the case of `C[C@H]1[C@H](N2CCS(=O)(=O)CC2)O[C@@H]2O[C@@]3(C)CC[C@H]4[C@H](C)CC[C@@H]1[C@@]24OO3` [AM, artemisone], the P-gp inhibitory properties result at P-glycoprotein (P-gp) (at 100 μM) and at P-glycoprotein (P-gp) (at test concentrations) was “did not exhibit P-gp inhibitory properties” each time. Besides, the Papp at 120 min in data set [1] (drug alone, read-out: Ap-Bas directional Papp, range over concentrations tested) is 37 to 60 ×10⁻⁶ cm/s; in data set [1] (drug alone, read-out: Bas-Ap directional Papp, range over concentrations tested), 35 to 47 ×10⁻⁶ cm/s; in data set [1] (read-out: permeability across the gastrointestinal epithelium (class)), more than 25 ×10⁻⁶ cm/s; in data set [1] (summary in abstract, methylene blue depending on the direction of transport, read-out: permeability), approximately 50 ×10⁻⁶ cm/s. Also, in data set [1] (Caco-2, Conc (μM) + inhibitor (μM): 10, Bas-Ap divided by Ap-Bas), the efflux ratio at 120 min, 10 µM is 0.8. For the same compound, the Papp at 120 min, 10 µM in data set [1] (Caco-2, Conc (μM) + inhibitor (μM): 10, first-named drug measured, read-out: Papp Ap-Bas) is 59.6 ± 4.2 ×10⁻⁶ cm/s. Also, the Papp B→A at 120 min, 10 µM in data set [1] (Caco-2, Conc (μM) + inhibitor (μM): 10, first-named drug measured, read-out: Papp Bas-Ap) came to 46.9 ± 8.5 ×10⁻⁶ cm/s. For the same compound, the efflux ratio at 120 min, 20 µM in data set [1] (Caco-2, Conc (μM) + inhibitor (μM): 20, Bas-Ap divided by Ap-Bas) is 0.9. Further, the Papp at 120 min, 20 µM in data set [1] (Caco-2, Conc (μM) + inhibitor (μM): 20, first-named drug measured, read-out: Papp Ap-Bas) was 37 ± 4.7 ×10⁻⁶ cm/s. The Papp B→A at 120 min, 20 µM in data set [1] (Caco-2, Conc (μM) + inhibitor (μM): 20, first-named drug measured, read-out: Papp Bas-Ap) is 34.7 ± 2.7 ×10⁻⁶ cm/s. The Net flow direction result was “Diffusion (0.25)” with Caco-2 cell monolayers (Conc (μM) + inhibitor (μM): 10) and “Diffusion (0.69)” in the data set with Caco-2 cell monolayers (Conc (μM) + inhibitor (μM): 20). The “drug absorption predicted from Papp” value in the data set on Caco-2 cell monolayers (based on FDA biopharmaceutical classification system) is 100%. Also, in data set [2], the in-vivo bioavailability result is “higher in-vivo bioavailability compared to artesunate”.
